Experimental data: patent publication US10889812B2, “Short non-coding protein regulatory RNAs (sprRNAs) and methods of use” (University of Maryland, Baltimore, priority 2014, dated 2021)
“Also recorded” adds a separate entry of the source. m = 2'-O-methyl; r = 2'-OH (RNA)

What was measured:
[1] = system: p-ERM; experiment: IP with anti-p-ERM antibody followed by RT-PCR in transfected H1792 cells; assay type: binding, human; settings: H1792 cells transfected with the oligonucleotide
Description: We next wanted to determine the site critical for piR-L-163's binding toP-ERM. We first analyzed the piR-L-163 sequence and identified a candidate motif “UUNNUUUNNUU” (SEQ ID NO:495) with potentially critical for the binding (FIG. 5a). We then generated 5 mutant forms of piR-L-163 named as M1-M5 (FIG. 5b and Table 3) to test their potential impact on the p-ERM binding. For this experiment, we used H1792 cells because these cells expressed extremely low level of endogenous piR-L-163 but considerable amount of p-ERM (FIG. 5c and FIG. 11a). H1792 cells were transfected with Scr (control), Ant-163, piR-L-163 (WT), or Mutant 1 (M1) to Mutant 5 (M5) RNA oligonucletides, respectively. An anti-p-ERM antibody was used for IP followed by RT-PCR using primers specific for Scr, Ant-163, piR-L-163, or M1-M5 (Table 6) to detect the corresponding oligonucleotides.
To amplify sncRNAs, we added an adaptor to the 3′ end, a process including adaptor ligation, RT and PCR (de Vanssay, A. et al. Paramutation in Drosophila linked to emergence of a piRNA-producing locus. Nature 490, 112-115 (2012); Li, Z. et al. Characterization of viral and human RNAs smaller than canonical MicroRNAs. J Virol. 83, 12751-12758 (2009)). For adaptor ligation, the adaptor /5′rapp/CTGTAGGCACCATCAAT/3′ddc/ (SEQ ID NO:499) with both 5′ and 3′ modification was used. Briefly, mixed 1 μl (10 pmol, ˜55 ng) of RNA 3′ adaptor and 4.4 μl (˜100 ng) of purified sncRNAs in a 1.5 ml EP tube; Incubated at 72° C. for 2 min, then placed on ice immediately and kept it on ice for at least 1 min; Added the following reagents (New England Biolabs) to the above tube: 0.8 μl 10×RNA ligase buffer, 1 μl RNase inhibitor, and 1 μl single strand RNA ligase; Mixed it well and incubated at 37° C. for 1 hr, then terminated the reaction at 65° C. for 15 min. For RT, SuperScript™ III First-Strand Synthesis System (Invitrogen) was used according to the manufacturer's instructions with gene specific primer (5′-[…]-3′) (SEQ ID NO:500). For PCR, a common reverse primer (5′-[…]-3′) (SEQ ID NO:501) and primers specific for individual sncRNAs (Table 6). Amplification conditions were denaturation at 95° C. for 30 s (5 min for the first cycle), annealing at 60° C. for 20 s and extension at 72° C. for 20 s (2 min for the last cycle) for 25 cycles.
For IP using anti-human Moesin or p-ERM antibodies, anti-Moesin (Clone Q480, Catalog No. 3150, Cell Signaling) or anti-p-ERM (Clone 41A3, Catalog No. 3149, Cell Signaling) antibodies were used and a rabbit IgG was used as a control. Briefly, Saturated protein G agarose beads (Sigma-Aldrich) with rabbit IgG, anti-Moesin or anti-p-ERM antibodies, respectively (1 μg antibody was used for 4 μl agarose beads) at 4° C. for 3 hrs, centrifuged at 2,200×g for 5 min, and discarded the upper aqueous phase; (2) Protein extracts prepared from cells using lysis buffer (20 mM Tris-cl, pH7.6, 150 mM NaCl, 20 mM KCl, 1.5 mM MgCl2, 0.5% NP-40, 0.5 mM PMSF) were pre-cleared using protein G agarose at 4° C. for 2 hrs, centrifuged at 2,200×g for 5 min, and transferred the upper aqueous phase to above tubes with agarose beads saturated with antibodies, respectively; Kept the tubes rotating overnight at 4° C., centrifuged at 2,200×g for 5 min, and washed the beads with lysis buffer twice; Extracted total RNAs from beads using Trizol Reagent (Life Technologies); Amplification of piR-L-163 or its mutants was performed according to the steps described in the “RT-PCR” section.

[2] = system: H1792 cells; experiment: Trans-well invasion assay; assay type: cell-based, human; settings: H1792, vs control RNA oligonucleotides
Description: We then tested the potential impact of piR-L-163 in cell migration and invasion, two of the properties involving ERM's biological functions (Fehon, R. G., Mclatchey, A. I. & Bretscher, A. Organizing the cell cortex: the role of ERM proteins. Nat Rev Mol Cell Biol. 11, 276-287 (2010); Hunter, K. W. Ezrin, a key component in tumor metastasis. Trends Mol. Med. 10, 201-204 (2004); Luo, Y. et al. Recognition of CD146 as an ERM-binding protein offers novel mechanisms for melanoma cell migration. Oncogene 31, 306-321 (2013); Clucas, J. & Valderrama, F. ERM proteins in cancer progression. J Cell Sci. 128, 1253 (2015)).
Briefly, 24 hrs after transfection, 6×10^4 cells were placed in the upper chamber of Matrigel Invasion Chambers (BD Bioscience) with growth factor-free Keratinocyte-SFM and the bottom chamber were exposed to Keratinocyte-SFM medium supplemented with L-Glutamine, prequalified human recombinant EGF 1-53 and BPE. Invading cells were evaluated after 12 hrs according to the manufacturer's instruction. The numbers of invading cells were adjusted 15% downwards for Ant-163 treated cells or 15% upwards for piR-L-163 treated cells to compensate the differences for the proliferation rates.

[3] = system: MDM2; experiment: Western blot of MDM2 cleavage and phosphorylation in SCC cells; assay type: cell-based, human; settings: SCC cells transfected, vs Scr RNA
Description: Primary antibodies used were: anti-Moesin (1:1,000, Clone Q480, Catalog No. 3150, Cell Signaling), anti-p-ERM (Clone 41A3, Catalog No. 3149, Cell Signaling), anti-Moesin (Clone 38/Moesin, Catalog No. 610401, BD Transduction Laboratories), anti-p-Moesin (Thr558, Catalog No. 12895, Sanra Cruz), anti-β-actin (1:5,000, Catalog No. A228, Sigma-Aldrich), anti-EBP50 (1:100, Clone 6/EBP50, Catalog No. 61160, BD Transduction Laboratories), anti-F-actin (1:100, Clone NH3, Catalog No. MA1-80729, Thermor Fisher), anti-p-Wee 1 (Se53, 1:1000, Catalog No. sc-130223, Sanra Cruz), anti-Wee 1 (C-20, 1:1000, Catalog No. sc-325, Sanra Cruz), anti-p-Cdc2 (Tyr15, 1:1000, Catalog No. 9111, Cell Signaling), anti-p-Cdk (Thr14/Tyr15-R, 1:1000, Catalog No. sc-28435-R, Sanra Cruz), anti-Cdc2 p34 (H-297, 1:1000, Catalog No. sc-747, Sanra Cruz), anti-p-Cdc25C (Ser198, 1:1000, Catalog No. 9529, Cell Signaling), anti-CDK2 (78B2, 1:1000, Catalog No. 2546, Cell Signaling), anti-p-Histone H2AX (Ser139, 20E3, :1000, Catalog No. 9718, Cell Signaling), and anti-GFP (N-terminal, 1:4000, Catalog No. G1544, Sigma). Secondary antibodies used were: Goat anti-Mouse (1:2,500, Catalog No. 31160, Pierce), and Goat anti-Rabbit (1:2,500, Catalog No. 31460, Pierce). Cells were lysed in RIPA buffer (Sigma) on ice after washed in PBS twice, centrifuge at […] for 10 min at 4° C. Protein in supernatant was qualified using BCA™ protein assay kit (Thermo Scitific) and denatured in SDS loading buffer in boiling water, run 10% SDS-PAGE gel and transferred to nitrocellulose membrane (Thermo Scitific). […]
Next, we wanted to explore potential mechanism of piR-L-138-mediated apoptosis inhibition in CDDP treated lung SCC cells. We first analyzed cleaved PARP, a protein marker indicative of apoptosis, and found it was increased in the SCC cells pre-treated with Ant-138 compared with Scr pre-treated cells (FIG. 15d). As both of the SCC cell lines harbor p53 mutations, we analyzed mouse double minute 2 homolog (MDM2) which has been implicated in apoptosis including p53-independent pathway (Bohlman S, Manfredi J J. p53-independent effects of Mdm2. Subcell Biochem. 85,235-46 (2014); Bouska A, Eischen C M. Mdm2 affects genome stability independent of p53. Cancer Res. 69, 1697-701 (2009); Zhang, Z., Li, M., Wang, H., Agrawal, S., and Zhang, R. Antisense therapy targeting MDM2 oncogene in prostate cancer: Effects on proliferation, apoptosis, multiple gene expression, and chemotherapy. Proc. Natl. Acad. Sci. 100, 11636-11641 (2003); Zhang Z, Wang H, Li M, Agrawal S, Chen X, Zhang R. MDM2 Is a Negative Regulator of p21WAF1/CIP1, Independent of p53. […]

| Substance | oligonucleotide detected by RT-PCR in anti-p-ERM IP products (binding to p-ERM) [1] | further results |
| --- | --- | --- |
| M1: mutant form of piR-L-163, RNA oligonucleotide, SEQ ID NO:519 (AUAUCAUGAUGACACGACGACACUCUGACC; (30)..(30) 2′-O-methylation) | no RT-PCR band could be detected | invasion capability [2]: no impact |
| M2: mutant form of piR-L-163, RNA oligonucleotide, SEQ ID NO:520 (AUAUCAUGAUGUUACGACGAUUCUCUGACC; sugars from the 5' end r29 m1, backbone not given here; further chemistry not fully specified) | no RT-PCR band could be detected | – |
| M3: mutant form of piR-L-163, RNA oligonucleotide, SEQ ID NO:521 (AUAUCAUGAUGUUACGCUGAUUCUCUGACC; sugars from the 5' end r29 m1, backbone not given here; further chemistry not fully specified) | RT-PCR bands with expected sizes were detected; also recorded: substantially weaker | – |
| M4: mutant form of piR-L-163, RNA oligonucleotide, SEQ ID NO:522 (AUAUCAUGAUGUUACUCUGAUUCUCUGACC; sugars from the 5' end r29 m1, backbone not given here; further chemistry not fully specified) | RT-PCR bands with expected sizes were detected | – |
| M5: mutant form of piR-L-163, RNA oligonucleotide, SEQ ID NO:523 (AUUUCAUGAUGUUACUUUGAUUCUCUGACC; sugars from the 5' end r29 m1, backbone not given here; further chemistry not fully specified) | RT-PCR bands with expected sizes were detected | – |
| Scr: scrambled DNA or RNA oligonucleotides used as control (SEQ ID NO:506 DNA, SEQ ID NO:524 RNA) (DNA GATACCAGGGACATACGCTTGATCCTAGC; chain GAUACCAAGGACAUACGCUUAUGCAUGCUA; DNA: DNA, backbone and methylation of C not given here; chain: chemistry not given here) [reference compound] | no RT-PCR band could be detected | – |
| piR-L-138: sprRNA, SEQ ID NO:268; piRNA-L down-regulated in NSCLC cells, up-regulated upon cisplatin (ACUUUAGCUCUAGAAUUACUCUGAGACCU; expressed or natural sequence; listed as Homo sapiens) | – | MDM2 cleavage [3]: enhanced MDM2 cleavage; Serine-166 phosphorylation in cleaved MDM2 [3]: reduced Serine-166 phosphorylation in cleaved MDM2 |
